Measured values as given in US20140221283A1 (Indiana University Research and Technology Corporation, priority 2011, published 2014).
*1 amine or outer side, *2 acyl side, *3 side chain or, on linkers, in order; H or OH if unused. Where a SMILES comes first, the peptide text is derived from it. Where no end group is shown, it is not given here. Side-chain parts run from the residue outwards. [ ]: non-standard residue; d: D form. The star is where a group is joined. γGlu = O=C(O)[C@H](CCC(=O)[*:2])N[*:1]; Palmitoyl = CCCCCCCCCCCCCCCC(=O)*; Aib = CC(C)(N)C(=O)O

Columns and labels:
human GLP-1R = human GLP-1R (Homo sapiens, UniProt P43220); assay: firefly luciferase-based cAMP reporter assay, HEK293 cells co-transfected with GLP-1 receptor (Example 3); assay type: cell-based; design: expressed in transfected cells; host or cells: HEK293; conditions: procedure of Example 3
human GLP-1R, sequence (P43220 24-463): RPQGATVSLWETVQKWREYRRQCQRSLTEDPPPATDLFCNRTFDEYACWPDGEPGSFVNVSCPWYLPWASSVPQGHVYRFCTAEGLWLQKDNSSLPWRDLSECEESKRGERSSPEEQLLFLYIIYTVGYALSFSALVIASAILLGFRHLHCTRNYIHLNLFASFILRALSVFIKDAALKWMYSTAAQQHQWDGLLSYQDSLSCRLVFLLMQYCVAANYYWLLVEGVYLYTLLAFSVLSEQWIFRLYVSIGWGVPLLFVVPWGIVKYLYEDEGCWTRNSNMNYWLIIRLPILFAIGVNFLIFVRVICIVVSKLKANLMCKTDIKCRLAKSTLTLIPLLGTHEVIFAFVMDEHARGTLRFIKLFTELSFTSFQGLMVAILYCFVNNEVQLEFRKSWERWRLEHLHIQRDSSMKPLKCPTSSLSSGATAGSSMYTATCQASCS
Procedure: (§1) The ability of each peptide to induce cAMP was measured in a firefly luciferase-based reporter assay.
(§2) At the end of the incubation, 100 μL of LucLite luminescence substrate reagent (Perkin Elmer, Wellesley, Mass.) were added to each well.

[1] = body weight of diet-induced obese (DIO) mice dosed daily for nine days (Example 7); assay type: in vivo; conditions: Day 9; for body weight reduction: 3 nmol/kg daily; for body weight loss: 9 nmol/kg daily
Procedure: (§3) Mice were administered a vehicle control or a dose of a peptide daily for nine days. The peptides tested in this study included a peptide of SEQ ID NO: 12, a peptide of SEQ ID NO: 17, a peptide of SEQ ID NO: 18, and a peptide of SEQ ID NO: 19. Doses of each peptide were varied—each of the peptides of SEQ ID NO: 12, 17, and 19 was administered at a dose of either 3 nmol/kg or 9 nmol/kg, while the peptide of SEQ ID NO: 18 was administered at a dose of 1 nmol/kg, 3 nmol/kg, or 9 nmol/kg. Data are expressed as mean±SEM.

glucagon receptor = target: T1, glucagon receptor (Homo sapiens, UniProt P47871); assay: firefly luciferase-based cAMP reporter assay, HEK293 cells co-transfected with glucagon receptor (Example 3); assay type: cell-based; conditions: procedure of Example 3
T1 construct: expressed in transfected cells; host or cells: HEK293
T1 sequence (P47871 26-477): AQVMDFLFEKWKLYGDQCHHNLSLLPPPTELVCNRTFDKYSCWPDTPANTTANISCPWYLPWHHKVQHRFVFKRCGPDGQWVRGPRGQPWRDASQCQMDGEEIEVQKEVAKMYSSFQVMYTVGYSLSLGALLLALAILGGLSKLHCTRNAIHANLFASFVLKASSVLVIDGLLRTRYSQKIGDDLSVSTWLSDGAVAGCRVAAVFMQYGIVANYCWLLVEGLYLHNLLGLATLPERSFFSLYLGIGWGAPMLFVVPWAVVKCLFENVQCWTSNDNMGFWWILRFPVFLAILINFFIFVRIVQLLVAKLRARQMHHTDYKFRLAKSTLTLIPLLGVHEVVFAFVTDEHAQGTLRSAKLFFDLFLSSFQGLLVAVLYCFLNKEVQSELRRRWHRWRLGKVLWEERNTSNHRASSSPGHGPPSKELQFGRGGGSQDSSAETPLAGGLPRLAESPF
Procedure: as §1, §2

GIP receptor = target: T2, GIP receptor (Homo sapiens, UniProt P48546); assay: firefly luciferase-based cAMP reporter assay, HEK293 cells, GIP receptor (Example 3); assay type: cell-based; conditions: procedure of Example 3
T2 construct: expressed in transfected cells; host or cells: HEK293
T2 sequence (P48546 22-466): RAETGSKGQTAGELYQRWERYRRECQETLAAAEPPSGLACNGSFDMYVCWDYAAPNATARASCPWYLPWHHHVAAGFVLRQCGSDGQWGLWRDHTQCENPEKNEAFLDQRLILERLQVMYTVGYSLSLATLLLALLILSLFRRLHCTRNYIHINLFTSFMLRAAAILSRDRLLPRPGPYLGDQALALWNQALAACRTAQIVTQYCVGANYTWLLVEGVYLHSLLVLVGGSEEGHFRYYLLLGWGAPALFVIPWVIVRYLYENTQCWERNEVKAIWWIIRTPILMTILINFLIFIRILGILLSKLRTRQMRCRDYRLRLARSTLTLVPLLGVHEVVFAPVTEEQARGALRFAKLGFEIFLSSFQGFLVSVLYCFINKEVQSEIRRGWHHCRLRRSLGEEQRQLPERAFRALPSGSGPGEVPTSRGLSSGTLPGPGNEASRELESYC
Procedure: It is understood that a lower EC50 indicates higher activity or potency at the receptor.
as §1, §2
In some instances, the in vitro agonist activity at the GIP receptor was also tested.

[2] = ambient glucose levels of DIO mice dosed daily for nine days (Example 7); assay type: in vivo; conditions: for decrease in ambient glucose vs. vehicle: by Day 4
Procedure: as §3
In addition to cumulative body weight change, ambient glucose levels of the DIO mice were measured.

Row | Compound | EC50 (human GLP-1R) | body weight reduction [1] | body weight loss [1] | EC50 (glucagon receptor) | EC50 (GIP receptor) | decrease in ambient glucose vs. vehicle ([2]; 3 nmol/kg daily) | decrease in ambient glucose vs. vehicle ([2]; 9 nmol/kg daily) | decrease in glucose levels compared to vehicle control mice ([2]; 9 nmol/kg daily, Day 4) | decrease in glucose levels compared to vehicle control mice ([2]; 9 nmol/kg daily, Day 7) | decrease in glucose levels compared to vehicle control mice ([2]; 9 nmol/kg daily, Day 9)
1 | CCCCCCCCCCCCCCCC(=O)N[C@@H](CCC(=O)N[C@@H](CCC(=O)NCCCC[C@H](NC(=O)[C@H](CC(=O)O)NC(=O)[C@H](CO)NC(=O)[C@@H](NC(=O)[C@H](Cc1ccccc1)NC(=O)[C@@H](NC(=O)CNC(=O)[C@H](CCC(N)=O)NC(=O)C(C)(C)NC(=O)[C@@H](N)Cc1c[nH]cn1)[C@@H](C)O)[C@@H](C)O)C(=O)N[C@@H](CO)C(=O)N[C@@H](CCCCN)C(=O)N[C@@H](Cc1ccc(O)cc1)C(=O)N[C@@H](CC(C)C)C(=O)N[C@@H](CC(=O)O)C(=O)NC(C)(C)C(=O)N[C@@H](CCCNC(=N)N)C(=O)N[C@@H](C)C(=O)N[C@@H](C)C(=O)N[C@@H](CCC(N)=O)C(=O)N[C@@H](CC(=O)O)C(=O)N[C@@H](Cc1ccccc1)C(=O)N[C@H](C(=O)N[C@@H](CCC(N)=O)C(=O)N[C@@H](Cc1c[nH]c2ccccc12)C(=O)N[C@@H](CC(C)C)C(=O)N[C@@H](CCSC)C(=O)N[C@@H](CC(=O)O)C(=O)N[C@H](C(=O)N[C@@H](CCCCN)C(=O)N[C@@H](CCC(N)=O)C(=O)O)[C@@H](C)O)C(C)C)C(=O)O)C(=O)O [SEQ ID NO: 12] (H-H[Aib]QGTFTSDK([γGlu-γGlu-Palmitoyl])SKYLD[Aib]RAAQDFVQWLMDTKQ-OH; N-terminus assumed) | 3 pM | ~5.3% | ~29.8% | 10 pM | 12.8 nM | – | – | – | – | –
2 | CCCCCCCCCCCCCCCC(=O)N[C@@H](CCC(=O)N[C@@H](CCC(=O)NCCCC[C@H](NC(=O)[C@H](CC(=O)O)NC(=O)[C@H](CO)NC(=O)[C@@H](NC(=O)[C@H](Cc1ccccc1)NC(=O)[C@@H](NC(=O)CNC(=O)[C@H](CCC(N)=O)NC(=O)C(C)(C)NC(=O)[C@@H](N)Cc1c[nH]cn1)[C@@H](C)O)[C@@H](C)O)C(=O)N[C@@H](CO)C(=O)N[C@@H](CCCCN)C(=O)N[C@@H](Cc1ccc(O)cc1)C(=O)N[C@@H](CC(C)C)C(=O)N[C@@H](CC(=O)O)C(=O)NC(C)(C)C(=O)N[C@@H](CCCNC(=N)N)C(=O)N[C@@H](C)C(=O)N[C@@H](C)C(=O)N[C@@H](CCC(N)=O)C(=O)N[C@@H](CC(=O)O)C(=O)N[C@@H](Cc1ccccc1)C(=O)N[C@H](C(=O)N[C@@H](CCC(N)=O)C(=O)N[C@@H](Cc1c[nH]c2ccccc12)C(=O)N[C@@H](CC(C)C)C(=O)N[C@@H](CC(C)C)C(=O)N[C@@H](CC(=O)O)C(=O)N[C@H](C(=O)N[C@@H](CCCCN)C(=O)N[C@@H](CCC(N)=O)C(=O)O)[C@@H](C)O)C(C)C)C(=O)O)C(=O)O [SEQ ID NO: 16] (H-H[Aib]QGTFTSDK([γGlu-γGlu-Palmitoyl])SKYLD[Aib]RAAQDFVQWLLDTKQ-OH; N-terminus assumed) | 19 pM | – | – | 15 pM | 1.04 nM | – | – | – | – | –
3 | SEQ ID NO: 18: peptide of SEQ ID NO: 18 tested in DIO mice; sequence only in the sequence listing (HXQGTFTSDKSKYLDERAAQDFVQWLMDT; not fully specified; Xaa is AIB; Acylated with a C16 fatty acyl group via gamma- Glu-gamma-Glu spacer; C-terminal amidation) | – | ~12.3% | ~26.8% | – | – | −29% | −29% | – | – | –
4 | SEQ ID NO: 19: peptide of SEQ ID NO: 19 tested in DIO mice; sequence only in the sequence listing (H[dS]QGTFTSDK([γGlu-Palmitoyl])SKYLDERAAQDFVQWLLDT-NH2; N-terminus assumed; SMILES CCCCCCCCCCCCCCCC(=O)N[C@@H](CCC(=O)NCCCC[C@H](NC(=O)[C@H](CC(=O)O)NC(=O)[C@H](CO)NC(=O)[C@@H](NC(=O)[C@H](Cc1ccccc1)NC(=O)[C@@H](NC(=O)CNC(=O)[C@H](CCC(N)=O)NC(=O)[C@@H](CO)NC(=O)[C@@H](N)Cc1c[nH]cn1)[C@@H](C)O)[C@@H](C)O)C(=O)N[C@@H](CO)C(=O)N[C@@H](CCCCN)C(=O)N[C@@H](Cc1ccc(O)cc1)C(=O)N[C@@H](CC(C)C)C(=O)N[C@@H](CC(=O)O)C(=O)N[C@@H](CCC(=O)O)C(=O)N[C@@H](CCCNC(=N)N)C(=O)N[C@@H](C)C(=O)N[C@@H](C)C(=O)N[C@@H](CCC(N)=O)C(=O)N[C@@H](CC(=O)O)C(=O)N[C@@H](Cc1ccccc1)C(=O)N[C@H](C(=O)N[C@@H](CCC(N)=O)C(=O)N[C@@H](Cc1c[nH]c2ccccc12)C(=O)N[C@@H](CC(C)C)C(=O)N[C@@H](CC(C)C)C(=O)N[C@@H](CC(=O)O)C(=O)N[C@H](C(N)=O)[C@@H](C)O)C(C)C)C(=O)O) | – | ~8.1% | ~31.5% | – | – | – | – | ~40% | ~39% | ~26%
